# “And” between values parts separate entries of the source, which are not always exact repeats. Equal entries are not always repeated.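 Each compound was tested at five concentrations against cells in 96-well plates for 48 hours. GI50 = concentration required for 50% inhibition of growth. Definition used: TGI = concentration required for complete inhibition of growth.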
# Key:
# Assay in all cases: NCI tumour cell line growth inhibition, 48 h
# A498 renal = test system: A498 renal
# EKVX NSCLC = test system: EKVX NSCLC
# HL-60(TB) leukemia = test system: HL-60(TB) leukemia
# MOLT-4 leukemia = test system: MOLT-4 leukemia
# NCI-H460 lung = test system: NCI-H460 lung
# NCI-H522 lung = test system: NCI-H522 lung
# RXF 393 renal = test system: RXF 393 renal
# SF-268 CNS = test system: SF-268 CNS
# SK-MEL-2 melanoma = test system: SK-MEL-2 melanoma
# U251 CNS = test system: U251 CNS
# UACC-257 melanoma = test system: UACC-257 melanoma
# ACHN renal = test system: ACHN renal
# HCT-15 colon = test system: HCT-15 colon
# KM12 colon = test system: KM12 colon
Compound,TGI (A498 renal) [µM],TGI (EKVX NSCLC) [µM],TGI (HL-60(TB) leukemia) [µM],TGI (MOLT-4 leukemia) [µM],TGI (NCI-H460 lung) [µM],TGI (NCI-H522 lung),TGI (RXF 393 renal) [µM],TGI (SF-268 CNS) [µM],TGI (SK-MEL-2 melanoma) [µM],TGI (U251 CNS) [µM],TGI (UACC-257 melanoma) [µM],TGI (ACHN renal) [µM],TGI (HCT-15 colon) [µM],TGI (KM12 colon) [µM],GI50 (ACHN renal) [µM],GI50 (EKVX NSCLC) [µM],GI50 (HL-60(TB) leukemia) [µM],GI50 (MOLT-4 leukemia) [µM],GI50 (SF-268 CNS) [µM],GI50 (UACC-257 melanoma) [µM]
Cc1nn(-c2ccccc2)c2[nH]c(=S)cnc12,> 100,> 100,> 100,> 100,> 100,> 100 µM,> 100,> 100,> 100,> 100,> 100,,,,,,,,,
COC(=O)c1ccccc1/C=C1\Cc2cc(C)cc(C)c2C1=O,> 100,> 100,> 100,> 100,> 100,> 100 µM,> 100,> 100,> 100,> 100,> 100,> 100,> 100,> 100,,,,,,
O=C(CCc1ccc(O)cc1)NCCc1cccc(OCc2ccccc2)c1,> 100,> 100,50,48.4,66.6,99.3 µM,> 100,> 100,39.1,64.9,39.3,> 100,> 100,83,,,,,,
CCCCCCCCCCCCC(O)C1CCC(C(O)CCCCCCC(O)CCCCCCCC2=CC(C)OC2=O)O1 (centres undefined),> 100,> 100,62.8,33,> 100,56.9 µM,83,> 100,61.1,> 100,85.9,> 100,> 100,> 100,18.9,23,0.852,3.17,41.2,12.1
CCCCCC(CO)C(O)(C(F)(F)F)C(F)(F)F (centres undefined),> 10,> 10,> 10,> 10,> 10,> 10 µM,> 10,> 10,> 10,> 10,> 10,> 10,> 10,> 10,,,,,,
COc1cc(C2c3cc4c(cc3OC(Nc3ccccc3)C2C)OCO4)cc(OC)c1OC (centres undefined),1.69,> 88.5,0.593,8.28,> 100,2.04 µM,> 100,> 100,> 100,21.3,> 86.2,> 61.4,> 21.6,> 100,,,,,,
O=c1cc(CBr)c2ccc(O)cc2o1,> 100,91.1,> 100,> 100,> 100,> 100 µM,> 100,> 100,> 100,> 100,> 100,> 100,> 100,> 100,,,,,,
C(=NCc1ccccc1)c1ccccc1-c1ccccc1C=NCc1ccccc1,> 10,> 10,5.73,> 10,> 10,> 10 µM,> 10,> 10,> 10,> 10,7.53,> 10,> 10,> 10,,,,,,
CCOC(=O)c1c(-c2ccc(O)c(OC)c2)c(C#N)c(=S)n(C2OC(COC(C)=O)C(OC(C)=O)C(OC(C)=O)C2OC(C)=O)c1-c1ccccc1 (centres undefined),> 100,> 100,> 100,> 100,> 100,51.3 µM and 54.4 µM,> 100,> 100,,> 100,> 100,> 100,> 100,> 100,,,,,,
CCC1=CC2Cc3nc4cc(Cl)ccc4c(N)c3C(C1)C2 (centres undefined),17.3,11.6,7.42,3.28,18.5,16.1 µM,8.15,16.9,21.2,25.3,4.72,26.7,> 37.7,19.5,,,,,,
CN(C)CCCCN1c2ccccc2Sc2cc(N=[N+]=[N-])ccc21,22.4,15.5,3.94,4.3,3.83,3.05 µM,10.6,4.62,3.4,4.27,3.25,4.5,4.53,3.17,,,,,,
O=c1c2cc([N+](=O)[O-])ccc2n2n1Cc1ccccc1C2,> 100,> 100,> 100,> 100,> 100,> 100 µM,> 100,> 100,,> 100,> 100,> 100,> 100,> 100,,,,,,
CN(C(=O)Cc1ccc(Cl)c(Cl)c1)[C@@H]1CCCC[C@H]1[N+]1(C)CC=CC1,> 100,> 100,> 100,> 100,,> 100 µM,> 100,> 100,> 100,> 100,> 100,> 100,> 100,> 100,,,,,,
O=c1[nH]c(=S)[nH]n1C(=S)n1[nH]c(=S)[nH]c1=O,> 100,> 100,> 100,> 100,> 100,> 100 µM,> 100,> 100,> 100,> 100,> 100,> 100,> 100,> 100,,,,,,
C=C(Br)CN(C(C)=O)C1CCCCC1,> 100,> 100,> 100,> 100,> 100,> 100 µM,> 100,> 100,> 100,> 100,> 100,> 100,> 100,> 100,,,,,,
N#CC(Nc1ccccc1)c1ccc(C(C#N)Nc2ccccc2)cc1 (centres undefined),> 100,> 100,34.3,> 100,> 100,> 100 µM,> 100,> 100,> 100,> 100,> 100,> 100,> 100,> 100,,,,,,

# — PubChem BioAssay (NCI)
